Experimental data published in the NIST ThermoML archive (doi:10.1016/j.jct.2015.01.013).
± gives the expanded uncertainty stated by the source. Values belong to the molecule of their own block, whether it stands above or below them.

Experiments:
[1] = 298.15 K; 101.33 kPa; Liquid; Vibrating tube method
[2] = excess molar enthalpy (molar enthalpy of mixing); xn = mol fraction of the nth substance listed; conditions: 298.15 K, 101 kPa, Liquid, Flow calorimetry

SMILES: C1CCCCC1 [cyclohexane]
mass density [1]: 773.5 ± 0.2 kg/m3

SMILES: C1CCCCC1 [cyclohexane] + CC(C)O
excess molar enthalpy ([2]; x2 = 0.0995): 0.124 ± 0.00598 kcal/mol
excess molar enthalpy ([2]; x2 = 0.2009): 0.168 ± 0.00813 kcal/mol
excess molar enthalpy ([2]; x2 = 0.3009): 0.191 ± 0.00932 kcal/mol
excess molar enthalpy ([2]; x2 = 0.4014): 0.199 ± 0.00956 kcal/mol
excess molar enthalpy ([2]; x2 = 0.5016): 0.191 ± 0.00932 kcal/mol
excess molar enthalpy ([2]; x2 = 0.6011): 0.173 ± 0.00837 kcal/mol
excess molar enthalpy ([2]; x2 = 0.701): 0.143 ± 0.00693 kcal/mol
excess molar enthalpy ([2]; x2 = 0.8005): 0.105 ± 0.00526 kcal/mol
excess molar enthalpy ([2]; x2 = 0.9005): 0.0571 ± 0.00287 kcal/mol

SMILES: CO [methanol]
mass density [1]: 786.2 ± 0.2 kg/m3

More lines, now with the values ahead:

mass density [1]: 710.7 ± 0.2 kg/m3
SMILES: C=C(C)CC(C)(C)C [2,4,4-trimethyl-1-pentene]

excess molar enthalpy ([2]; x2 = 0.023): 0.0571 ± 0.00287 kcal/mol
excess molar enthalpy ([2]; x2 = 0.1): 0.107 ± 0.00526 kcal/mol
excess molar enthalpy ([2]; x2 = 0.198): 0.125 ± 0.00621 kcal/mol
excess molar enthalpy ([2]; x2 = 0.301): 0.138 ± 0.00669 kcal/mol
excess molar enthalpy ([2]; x2 = 0.398): 0.14 ± 0.00669 kcal/mol
excess molar enthalpy ([2]; x2 = 0.498): 0.14 ± 0.00669 kcal/mol
excess molar enthalpy ([2]; x2 = 0.598): 0.135 ± 0.00645 kcal/mol
excess molar enthalpy ([2]; x2 = 0.698): 0.122 ± 0.00598 kcal/mol
excess molar enthalpy ([2]; x2 = 0.798): 0.102 ± 0.00502 kcal/mol
excess molar enthalpy ([2]; x2 = 0.899): 0.0674 ± 0.00335 kcal/mol
SMILES: C=C(C)CC(C)(C)C [2,4,4-trimethyl-1-pentene] + CO

mass density [1]: 780.8 ± 0.2 kg/m3
SMILES: CC(C)O [propan-2-ol]
